The text below walks through data of patent US6610489B2, “Pharmacogenomics and identification of drug targets by reconstruction of signal transduction pathways based on sequences of accessible regions” (Sangamo BioSciences, Inc., priority 2000, dated 2003).

Molecules are shown by their SMILES.

One test deals with p16 gene. Particulars: HCT15 cells, in which the p16 CpG island is methylated and the p16 gene is inactive; cited from earlier work.
In test [1] the test system is p16 CpG island sequences associated with acetylated histone H3 in HCT15 cells. The test can be described thus: Chromatin immunoprecipitation with anti-acetylated histone H3 antibody, real-time quantitative PCR (Taqman). It is filed as cell-based, human. Particulars: HCT15 cells treated with 2 μM 5-azacytidine during three-day growth, compared to untreated cells; VEGF gene region as control sequence. The source says:
In this example, chromatin immunoprecipitation (ChIP) was used to enrich a population of DNA fragments comprising regulatory sequences for the p16 tumor suppressor gene, by virtue of their association with acetylated histone H3. A CpG island is located in the p16 gene (GenBank Accession No. AF022809), between about 30 nucleotide pairs upstream, and about 590 nucleotide pairs downstream of the transcriptional startsite identified by Hara et al. (1996) Mol. Cell. Biol. 16:859-867. One form of regulation of genes associated with CpG islands is through methylation of C residues within the CpG island. […]
Untreated and 5-azacytidine-treated HCT15 cells were analyzed by chromatin immunoprecipitation to test for a specific association of acetylated H3 with unmethylated (i.e., active) CpG island sequences. […] Then, in both portions, formaldehyde crosslinks were reversed, DNA was purified, and the purified DNA was analyzed by means of a real-time quantitative PCR assay, known colloquially as “Taqman®.” The DNA was analyzed for the relative proportion of two sequences: (1) a region adjacent to the CpG island located in the 5′-untranslated region of the p16 gene (see above), and (2) a portion of the VEGF gene corresponding to the region from 2324 to 2246 nucleotide pairs upstream of the transcription initiation site.
(Quantitative PCR measures a nucleic acid by following its amplification.)

As to `Nc1ncn([C@@H]2O[C@H](CO)[C@@H](O)[C@H]2O)c(=O)n1` [5-azacytidine], the p16 transcription entry in the test on p16 gene is “activation of p16 transcription”. In test [1], the “enrichment of p16 CpG island sequences associated with acetylated H3” value is “approximately 10 fold”.
